Measured values: patent US12018059B2, “Human amylin analog polypeptides and methods of use” (Intarcia Therapeutics, Inc., priority 2018, dated 2024)
Starred links: 1 amine or outer side, 2 acyl side, 3 side chain; linkers in the order of their positions; H or OH if unused. Positions of bridges follow the written chain, without caps; N, C: chain ends. Non-standard residues stand in square brackets, D forms with d. Residues, ends and D or L forms follow the SMILES beside them. Groups on a side chain read outwards from the residue. *: point of attachment. X3 = O=C(O)CCCCCCCCCCCCCCCCCCC(=O)N[C@@H](CCC(=O)NCOCCOCC(=O)NCOCCOCC(=O)*)C(=O)O; X1 = O=C(O)CCCCCCCCCCCCCCCCCCC(=O)NCOCCOCC(=O)*; C20 diacid = O=C(O)CCCCCCCCCCCCCCCCCCC(=O)*; C18 diacid = O=C(O)CCCCCCCCCCCCCCCCC(=O)*; C16 diacid = O=C(O)CCCCCCCCCCCCCCC(=O)*; γGlu = O=C(O)[C@H](CCC(=O)[*:2])N[*:1]; Palmitoyl = CCCCCCCCCCCCCCCC(=O)*

Assay: in vivo
Set-up: species or system Sprague-Dawley rats
Conditions: rat, iv, 0.033 mg/kg
Outline: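 Peptide plasma levels measured by UPLC-MS/MS (C18, product-ion monitoring) after protein precipitation or WCX SPE, calibrated in K2EDTA/protease-inhibitor rat plasma. Dosing in non-fasted male Sprague-Dawley rats (n=3): 0.033 mg/kg over 1 h by IV or SC infusion, or 0.3 mg/kg SC bolus; sampling up to 48 h.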

Vd [L/kg]	clearance [mL/min/kg]	half-life [h]	Compound
0.143	0.108	17.7	CC[C@H](C)[C@H](NC(=O)[C@@H]1CCCN1C(=O)CNC(=O)[C@H](Cc1ccccc1)NC(=O)[C@H](CC(N)=O)NC(=O)[C@H](CC(N)=O)NC(=O)[C@H](CO)NC(=O)[C@H](CO)NC(=O)[C@H](CCCCN)NC(=O)[C@H](Cc1c[nH]cn1)NC(=O)[C@H](CC(C)C)NC(=O)[C@H](CCCCNC(=O)CC[C@H](NC(=O)CC[C@H](NC(=O)CCCCCCCCCCCCCCCCC(=O)O)C(=O)O)C(=O)O)NC(=O)[C@H](CC(N)=O)NC(=O)[C@H](C)NC(=O)[C@H](CC(C)C)NC(=O)[C@H](CCCNC(=N)N)NC(=O)[C@H](CCC(N)=O)NC(=O)[C@@H](NC(=O)[C@H](C)NC(=O)[C@@H]1CSSC[C@H](NC(=O)[C@@H](N)CO)C(=O)N[C@@H](CC(N)=O)C(=O)N[C@@H]([C@@H](C)O)C(=O)N[C@@H](CO)C(=O)N[C@@H]([C@@H](C)O)C(=O)N1)[C@@H](C)O)C(=O)N[C@@H](CC(C)C)C(=O)N1CCC[C@H]1C(=O)N1CCC[C@H]1C(=O)N[C@H](C(=O)N[C@@H](CCCCN)C(=O)N[C@H](C(=O)NCC(=O)N[C@@H](CO)C(=O)N[C@@H](CCC(=O)O)C(=O)N[C@H](C(=O)N[C@@H](Cc1ccc(O)cc1)C(N)=O)[C@@H](C)O)C(C)C)[C@@H](C)O [Compound A87] (H-SCNTSTCATQRLANK([γGlu-γGlu-C18 diacid])LHKSSNNFGPILPPTKVGSETY-NH2; disulfide 2-7)
0.194	0.194	13.2	CCCCCCCCCCCCCCCC(=O)N[C@@H](CCC(=O)N[C@@H](CCC(=O)N[C@@H](CCC(=O)N[C@@H](CCC(=O)N[C@@H](CCC(=O)NCCCC[C@@H](NC(=O)[C@H](CCC(=O)O)NC(=O)[C@H](CC(N)=O)NC(=O)[C@H](C)NC(=O)[C@H](CC(C)C)NC(=O)[C@H](CCCNC(=N)N)NC(=O)[C@H](CCC(N)=O)NC(=O)[C@@H](NC(=O)[C@H](C)NC(=O)[C@@H]1CSSC[C@H](NC(=O)[C@@H](N)CO)C(=O)N[C@@H](CC(N)=O)C(=O)N[C@@H]([C@@H](C)O)C(=O)N[C@@H](CO)C(=O)N[C@@H]([C@@H](C)O)C(=O)N1)[C@@H](C)O)C(=O)N[C@@H](Cc1c[nH]cn1)C(=O)N[C@@H](CCCCN)C(=O)N[C@@H](CO)C(=O)N[C@@H](CO)C(=O)N[C@@H](CC(N)=O)C(=O)N[C@@H](CC(N)=O)C(=O)N[C@@H](Cc1ccccc1)C(=O)NCC(=O)N1CCC[C@H]1C(=O)N[C@H](C(=O)N[C@@H](CC(C)C)C(=O)N1CCC[C@H]1C(=O)N1CCC[C@H]1C(=O)N[C@H](C(=O)N[C@@H](CCCCN)C(=O)N[C@H](C(=O)NCC(=O)N[C@@H](CO)C(=O)N[C@@H](CCC(=O)O)C(=O)N[C@H](C(=O)N[C@@H](Cc1ccc(O)cc1)C(N)=O)[C@@H](C)O)C(C)C)[C@@H](C)O)[C@@H](C)CC)C(=O)O)C(=O)O)C(=O)O)C(=O)O)C(=O)O [Compound A91] (H-SCNTSTCATQRLANE[dK]([γGlu-γGlu-γGlu-γGlu-γGlu-Palmitoyl])HKSSNNFGPILPPTKVGSETY-NH2; disulfide 2-7)
0.084	0.0365	29.3	CC[C@H](C)[C@H](NC(=O)[C@@H]1CCCN1C(=O)CNC(=O)[C@H](Cc1ccccc1)NC(=O)[C@H](CC(N)=O)NC(=O)[C@H](CC(N)=O)NC(=O)[C@H](CO)NC(=O)[C@H](CO)NC(=O)[C@H](CCCCN)NC(=O)[C@H](Cc1c[nH]cn1)NC(=O)[C@H](CC(C)C)NC(=O)[C@H](CCCCNC(=O)CC[C@H](NC(=O)CC[C@H](NC(=O)COCCOCNC(=O)COCCOCNC(=O)CC[C@H](NC(=O)CCCCCCCCCCCCCCCCCCC(=O)O)C(=O)O)C(=O)O)C(=O)O)NC(=O)[C@H](CC(N)=O)NC(=O)[C@H](C)NC(=O)[C@H](CC(C)C)NC(=O)[C@H](CCCNC(=N)N)NC(=O)[C@H](CCC(N)=O)NC(=O)[C@@H](NC(=O)[C@H](C)NC(=O)[C@@H]1CSSC[C@H](NC(=O)[C@@H](N)CO)C(=O)N[C@@H](CC(N)=O)C(=O)N[C@@H]([C@@H](C)O)C(=O)N[C@@H](CO)C(=O)N[C@@H]([C@@H](C)O)C(=O)N1)[C@@H](C)O)C(=O)N[C@@H](CC(C)C)C(=O)N1CCC[C@H]1C(=O)N1CCC[C@H]1C(=O)N[C@H](C(=O)N[C@@H](CCCCN)C(=O)N[C@H](C(=O)NCC(=O)N[C@@H](CO)C(=O)N[C@@H](CCC(=O)O)C(=O)N[C@H](C(=O)N[C@@H](Cc1ccc(O)cc1)C(N)=O)[C@@H](C)O)C(C)C)[C@@H](C)O [Compound A94] (H-SCNTSTCATQRLANK([γGlu-γGlu-X3])LHKSSNNFGPILPPTKVGSETY-NH2; disulfide 2-7; N-terminus assumed)
0.153	0.0996	20.1	CC[C@H](C)[C@H](NC(=O)[C@@H]1CCCN1C(=O)CNC(=O)[C@H](Cc1ccccc1)NC(=O)[C@H](CC(N)=O)NC(=O)[C@H](CC(N)=O)NC(=O)[C@H](CO)NC(=O)[C@H](CO)NC(=O)[C@H](CCCCN)NC(=O)[C@H](Cc1c[nH]cn1)NC(=O)[C@H](CC(C)C)NC(=O)[C@@H](CCCCNC(=O)CC[C@H](NC(=O)CC[C@H](NC(=O)COCCOCNC(=O)CCCCCCCCCCCCCCCCCCC(=O)O)C(=O)O)C(=O)O)NC(=O)[C@H](CC(N)=O)NC(=O)[C@H](C)NC(=O)[C@H](CC(C)C)NC(=O)[C@H](CCCNC(=N)N)NC(=O)[C@H](CCC(N)=O)NC(=O)[C@@H](NC(=O)[C@H](C)NC(=O)[C@@H]1CSSC[C@H](NC(=O)[C@@H](N)CO)C(=O)N[C@@H](CC(N)=O)C(=O)N[C@@H]([C@@H](C)O)C(=O)N[C@@H](CO)C(=O)N[C@@H]([C@@H](C)O)C(=O)N1)[C@@H](C)O)C(=O)N[C@@H](CC(C)C)C(=O)N1CCC[C@H]1C(=O)N1CCC[C@H]1C(=O)N[C@H](C(=O)N[C@@H](CCCCN)C(=O)N[C@H](C(=O)NCC(=O)N[C@@H](CO)C(=O)N[C@@H](CCC(=O)O)C(=O)N[C@H](C(=O)N[C@@H](Cc1ccc(O)cc1)C(N)=O)[C@@H](C)O)C(C)C)[C@@H](C)O [Compound A96] (H-SCNTSTCATQRLAN[dK]([γGlu-γGlu-X1])LHKSSNNFGPILPPTKVGSETY-NH2; disulfide 2-7; N-terminus assumed)
0.0995	0.0604	21	CC[C@H](C)[C@H](NC(=O)[C@@H]1CCCN1C(=O)CNC(=O)[C@H](Cc1ccccc1)NC(=O)[C@H](CC(N)=O)NC(=O)[C@H](CC(N)=O)NC(=O)[C@H](CO)NC(=O)[C@H](CO)NC(=O)[C@H](CCCCN)NC(=O)[C@H](Cc1c[nH]cn1)NC(=O)[C@H](CC(C)C)NC(=O)[C@@H](CCCCNC(=O)CC[C@H](NC(=O)CC[C@H](NC(=O)CCCCCCCCCCCCCCCCCCC(=O)O)C(=O)O)C(=O)O)NC(=O)[C@H](CC(N)=O)NC(=O)[C@H](C)NC(=O)[C@H](CC(C)C)NC(=O)[C@H](CCCNC(=N)N)NC(=O)[C@H](CCC(N)=O)NC(=O)[C@@H](NC(=O)[C@H](C)NC(=O)[C@@H]1CSSC[C@H](NC(=O)[C@@H](N)CO)C(=O)N[C@@H](CC(N)=O)C(=O)N[C@@H]([C@@H](C)O)C(=O)N[C@@H](CO)C(=O)N[C@@H]([C@@H](C)O)C(=O)N1)[C@@H](C)O)C(=O)N[C@@H](CC(C)C)C(=O)N1CCC[C@H]1C(=O)N1CCC[C@H]1C(=O)N[C@H](C(=O)N[C@@H](CCCCN)C(=O)N[C@H](C(=O)NCC(=O)N[C@@H](CO)C(=O)N[C@@H](CCC(=O)O)C(=O)N[C@H](C(=O)N[C@@H](Cc1ccc(O)cc1)C(N)=O)[C@@H](C)O)C(C)C)[C@@H](C)O [Compound A97] (H-SCNTSTCATQRLAN[dK]([γGlu-γGlu-C20 diacid])LHKSSNNFGPILPPTKVGSETY-NH2; disulfide 2-7)

Compound	Vd [L/kg]	clearance [mL/min/kg]	half-life [h]
CC[C@H](C)[C@H](NC(=O)[C@@H]1CCCN1C(=O)CNC(=O)[C@H](Cc1ccccc1)NC(=O)[C@H](CC(N)=O)NC(=O)[C@H](CC(N)=O)NC(=O)[C@H](CO)NC(=O)[C@H](CO)NC(=O)[C@H](CCCCN)NC(=O)[C@H](Cc1c[nH]cn1)NC(=O)[C@H](CCCCNC(=O)CCCCCCCCCCCCCCC(=O)O)NC(=O)[C@H](CCC(=O)O)NC(=O)[C@H](CC(N)=O)NC(=O)[C@H](C)NC(=O)[C@H](CC(C)C)NC(=O)[C@H](CCCNC(=N)N)NC(=O)[C@H](CCC(N)=O)NC(=O)[C@@H](NC(=O)[C@H](C)NC(=O)[C@@H]1CSSC[C@H](NC(=O)[C@@H](N)CO)C(=O)N[C@@H](CC(N)=O)C(=O)N[C@@H]([C@@H](C)O)C(=O)N[C@@H](CO)C(=O)N[C@@H]([C@@H](C)O)C(=O)N1)[C@@H](C)O)C(=O)N[C@@H](CC(C)C)C(=O)N1CCC[C@H]1C(=O)N1CCC[C@H]1C(=O)N[C@H](C(=O)N[C@@H](CCCCN)C(=O)N[C@H](C(=O)NCC(=O)N[C@@H](CO)C(=O)N[C@@H](CCC(=O)O)C(=O)N[C@H](C(=O)N[C@@H](Cc1ccc(O)cc1)C(N)=O)[C@@H](C)O)C(C)C)[C@@H](C)O [Compound A86] (H-SCNTSTCATQRLANEK(C16 diacid)HKSSNNFGPILPPTKVGSETY-NH2; disulfide 2-7)	0.0936	0.297	4.65
CC[C@H](C)[C@H](NC(=O)[C@@H]1CCCN1C(=O)CNC(=O)[C@H](Cc1ccccc1)NC(=O)[C@H](CC(N)=O)NC(=O)[C@H](CC(N)=O)NC(=O)[C@H](CO)NC(=O)[C@H](CO)NC(=O)[C@H](CCCCN)NC(=O)[C@H](Cc1c[nH]cn1)NC(=O)[C@H](CCCCNC(=O)CCCCCCCCCCCCCCCCC(=O)O)NC(=O)[C@H](CCC(=O)O)NC(=O)[C@H](CC(N)=O)NC(=O)[C@H](C)NC(=O)[C@H](CC(C)C)NC(=O)[C@H](CCCNC(=N)N)NC(=O)[C@H](CCC(N)=O)NC(=O)[C@@H](NC(=O)[C@H](C)NC(=O)[C@@H]1CSSC[C@H](NC(=O)[C@@H](N)CO)C(=O)N[C@@H](CC(N)=O)C(=O)N[C@@H]([C@@H](C)O)C(=O)N[C@@H](CO)C(=O)N[C@@H]([C@@H](C)O)C(=O)N1)[C@@H](C)O)C(=O)N[C@@H](CC(C)C)C(=O)N1CCC[C@H]1C(=O)N1CCC[C@H]1C(=O)N[C@H](C(=O)N[C@@H](CCCCN)C(=O)N[C@H](C(=O)NCC(=O)N[C@@H](CO)C(=O)N[C@@H](CCC(=O)O)C(=O)N[C@H](C(=O)N[C@@H](Cc1ccc(O)cc1)C(N)=O)[C@@H](C)O)C(C)C)[C@@H](C)O [Compound A93] (H-SCNTSTCATQRLANEK(C18 diacid)HKSSNNFGPILPPTKVGSETY-NH2; disulfide 2-7)	0.129	0.109	16.7
